ChEMBL document CHEMBL5108055, “Dual A1/A3 Adenosine Receptor Antagonists: Binding Kinetics and Structure-Activity Relationship Studies Using Mutagenesis and Alchemical Binding Free Energy Calculations” (J Med Chem, 2022)

Columns and labels:
[1] = molecular target: T1, Adenosine receptor A3 (Homo sapiens, UniProt P0DMS8); assay: Antagonist activity at wild type A3R (unknown origin) expressed in Flp-In-CHO cells assessed as inhibition of NECA reduced forskolin stimulated cAMP accumulation incubated for 30 mins; type: functional, cell-based
T1 sequence (P0DMS8 whole entry): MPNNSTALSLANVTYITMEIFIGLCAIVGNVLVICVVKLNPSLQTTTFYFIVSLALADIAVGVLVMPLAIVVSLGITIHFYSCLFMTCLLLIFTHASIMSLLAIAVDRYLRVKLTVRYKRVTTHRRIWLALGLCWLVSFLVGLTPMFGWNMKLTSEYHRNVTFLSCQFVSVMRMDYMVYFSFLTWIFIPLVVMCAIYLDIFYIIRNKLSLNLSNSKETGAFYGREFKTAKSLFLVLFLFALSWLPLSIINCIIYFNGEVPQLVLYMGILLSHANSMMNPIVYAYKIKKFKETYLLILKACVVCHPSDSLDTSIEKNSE

[2] = molecular target: T2, Adenosine receptor A1 (Homo sapiens, UniProt P30542); assay: Binding affinity to Nluc-A1R (unknown origin) expressed in HEK293 cells by nanoBRET assay; type: cell-based
T2 sequence (P30542 whole entry): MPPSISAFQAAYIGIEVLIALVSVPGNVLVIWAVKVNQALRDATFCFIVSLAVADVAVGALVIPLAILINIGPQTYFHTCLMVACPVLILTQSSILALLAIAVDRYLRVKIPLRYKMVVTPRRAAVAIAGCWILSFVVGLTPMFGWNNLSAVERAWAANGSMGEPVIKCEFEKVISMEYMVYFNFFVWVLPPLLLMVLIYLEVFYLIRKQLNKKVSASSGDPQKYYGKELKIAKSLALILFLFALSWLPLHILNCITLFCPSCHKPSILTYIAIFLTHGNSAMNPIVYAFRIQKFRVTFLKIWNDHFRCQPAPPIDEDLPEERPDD

[3] = molecular target: T2, Adenosine receptor A1; assay: Antagonist activity at wild type A1R (unknown origin) expressed in CHO-K1 cells assessed as inhibition of NECA reduced forskolin stimulated cAMP accumulation incubated for 30 mins; type: functional, cell-based
[4] = molecular target: T2, Adenosine receptor A1; assay: Binding affinity to wild type A1R (unknown origin) expressed in CHO-K1 cells assessed as equilibrium binding affinity constant by nanoBRET assay; type: cell-based
[5] = molecular target: T1, Adenosine receptor A3; assay: Binding affinity to wild type A3R (unknown origin) expressed in CHO-K1 cells assessed as equilibrium binding affinity constant by nanoBRET assay; type: cell-based, Flp-In-CHO
[6] = molecular target: T1, Adenosine receptor A3; assay: Binding affinity to Nluc-A3R (unknown origin) expressed in HEK293 cells by nanoBRET assay; type: cell-based
[7] = molecular target: T1, Adenosine receptor A3; assay: Binding affinity to wild type A3R (unknown origin) expressed in Flp-In-CHO cells assessed as dissociation constant by Schild analysis; type: cell-based
[8] = Binding affinity to A1R Y271 7.36A mutant (unknown origin) by saturation NanoBRET binding assay; parameters: species or system Homo sapiens
[9] = molecular target: Adenosine receptor A1 (Homo sapiens, UniProt P30542, E172A); assay: Binding affinity to A1R E172 5.30A mutant (unknown origin) by saturation NanoBRET binding assay
Sequence of Adenosine receptor A1 (Homo sapiens, UniProt P30542, E172A) (P30542 whole entry E172A): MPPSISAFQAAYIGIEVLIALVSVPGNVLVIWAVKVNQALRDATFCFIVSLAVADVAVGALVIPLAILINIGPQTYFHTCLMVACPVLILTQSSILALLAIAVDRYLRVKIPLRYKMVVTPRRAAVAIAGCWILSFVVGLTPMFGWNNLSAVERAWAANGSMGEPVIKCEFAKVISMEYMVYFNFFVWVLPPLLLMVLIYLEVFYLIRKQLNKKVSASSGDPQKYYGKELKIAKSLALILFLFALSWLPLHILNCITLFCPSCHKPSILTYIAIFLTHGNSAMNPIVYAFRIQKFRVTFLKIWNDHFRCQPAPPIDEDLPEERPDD

[10] = molecular target: Adenosine receptor A1 (Homo sapiens, UniProt P30542, H251A); assay: Binding affinity to A1R H251 6.52A mutant (unknown origin) by saturation NanoBRET binding assay
Sequence of Adenosine receptor A1 (Homo sapiens, UniProt P30542, H251A) (P30542 whole entry H251A): as the sequence (P30542 whole entry E172A) above, with A172E, H251A counted along it

[11] = molecular target: Adenosine receptor A1 (Homo sapiens, UniProt P30542, L250A)
Sequence of Adenosine receptor A1 (Homo sapiens, UniProt P30542, L250A) (P30542 whole entry L250A): as the sequence (P30542 whole entry E172A) above, with A172E, L250A counted along it
Description: Binding affinity to A1R L250 6.51A mutant (unknown origin) by saturation NanoBRET binding assay

[12] = molecular target: Adenosine receptor A1 (Homo sapiens, UniProt P30542, S267A); assay: Binding affinity to A1R S267 7.32A mutant (unknown origin) in by saturation NanoBRET binding assay
Sequence of Adenosine receptor A1 (Homo sapiens, UniProt P30542, S267A) (P30542 whole entry S267A): as the sequence (P30542 whole entry E172A) above, with A172E, S267A counted along it

[13] = molecular target: T2, Adenosine receptor A1; assay: Binding affinity to wild type A1R (unknown origin) by saturation NanoBRET binding assay
[14] = molecular target: T2, Adenosine receptor A1; assay: Displacement of [3H]-DPCPX from human adenosine A1R expressed in CHO cells membrane incubated for 1 hr; type: cell membranes
[15] = molecular target: T3, Adenosine receptor A1 (Homo sapiens) (UniProt P30542); assay: Displacement of [3H]-DPCPX from human adenosine A1R expressed in CHO cells membrane assessed as residence time; type: cell membranes; conditions: filed as antagonist
T3 sequence (whole entry): T2 sequence (P30542 whole entry)

[16] = molecular target: T3, Adenosine receptor A1 (Homo sapiens); assay: Displacement of [3H]-DPCPX from human adenosine A1R expressed in CHO cells membrane assessed as association constant (kon) incubated for 45 mins; type: cell membranes; conditions: filed as antagonist
[17] = molecular target: T3, Adenosine receptor A1 (Homo sapiens); assay: Displacement of [3H]-DPCPX from human adenosine A1R expressed in CHO cells membrane assessed as dissociation constant (koff) preincubated for 1 hr followed by compound addition and measured after 1 hr; type: cell membranes; conditions: filed as antagonist
[18] = molecular target: T4, Adenosine receptor A3 (Homo sapiens) (UniProt P0DMS8); assay: Binding affinity to N-terminal Nano-luc tagged human adenosine A3R expressed in HEK293 cells membrane assessed as dissociation constant (koff); type: cell membranes; conditions: filed as antagonist
T4 sequence (whole entry): T1 sequence (P0DMS8 whole entry)

[19] = molecular target: T4, Adenosine receptor A3 (Homo sapiens); assay: Binding affinity to N-terminal Nano-luc tagged human adenosine A3R expressed in HEK293 cells membrane assessed as residence time; type: cell membranes; conditions: filed as antagonist
[20] = molecular target: T4, Adenosine receptor A3 (Homo sapiens); assay: Binding affinity to N-terminal Nano-luc tagged human adenosine A3R expressed in HEK293 cells membrane assessed as association constant (kon); type: cell membranes; conditions: filed as antagonist
[21] = molecular target: T1, Adenosine receptor A3; assay: Binding affinity to N-terminal Nano-luc tagged human adenosine A3R expressed in HEK293 cells membrane; type: cell membranes
[22] = molecular target: T4, Adenosine receptor A3 (Homo sapiens); assay: Binding affinity to human adenosine A3R expressed in CHO cells membrane assessed as binding constant (kon); type: cell membranes; conditions: filed as antagonist
[23] = molecular target: T4, Adenosine receptor A3 (Homo sapiens); assay: Binding affinity to human adenosine A3R expressed in CHO cells membrane assessed as residence time; type: cell membranes; conditions: filed as antagonist
[24] = molecular target: T4, Adenosine receptor A3 (Homo sapiens); assay: Binding affinity to human adenosine A3R expressed in CHO cells membrane assessed as dissociation constant (koff); type: cell membranes; conditions: filed as antagonist
[25] = molecular target: T1, Adenosine receptor A3; assay: Binding affinity to human adenosine A3R expressed in CHO cells membrane; type: cell membranes
[26] = molecular target: T2, Adenosine receptor A1; assay: Binding affinity to human adenosine A1R expressed in CHO cells membrane; type: cell membranes

SMILES	IC50 [1] [nM]	Kd [2] [nM]	IC50 [3] [nM]	Ki [4] [nM]	Ki [5] [nM]	Kd [6] [nM]	Kd [7] [nM]	also measured
CCNC(=O)[C@H]1O[C@@H](n2cnc3c(N)ncnc32)[C@H](O)[C@@H]1O [NECA]	–	–	–	–	–	–	–	pKd [8]: 5.45
N#Cc1cc2c(-c3ccccc3)n[nH]c2c(Nc2ccccc2)n1	60.3	61.7	13.5	214	43.7	26.3	17	–
Cn1nc(NC(=O)CNc2ccccc2)c2cc(Nc3ccccc3)ncc21	–	398	2.63	295	–	–	–	–
Cn1nc(NC(=O)c2ccccc2)c2cc(Nc3ccccc3)ncc21	6.76	851	5.01	> 955	234	–	170	–
N#Cc1c(N)nc(SCc2ncc[nH]2)c(C#N)c1-c1ccc(O)cc1	–	–	–	–	–	–	–	Kd [14]: 4.6 nM; TIME [15]: 0.0183 h; K [16]: 2 10^8/M/min; K [17]: 0.92 min⁻¹
O=C(CNc1ccccc1)Nc1n[nH]c2cnc(Nc3ccccc3)cc12	3.02	282	6.92	363	0.115	355	490	–
COc1cccc(Cn2c(=O)n(CC3CC3)c(=O)c3c2nc2cc(OC)ccn23)c1	–	–	–	–	–	–	–	K [18]: 0.0065 min⁻¹; TIME [19]: 2.8 h; K [20]: 8.17 10^6/M/min; Kd [21]: 9.11 nM
CCCn1c(=O)c2[nH]c(-c3ccc(OCC(=O)NCCNC(=O)CCNC(=O)CCCCNC(=O)CCCCCNC(=O)COc4ccc(/C=C/C5=[N+]6C(=Cc7ccc(-c8cccs8)n7[B-]6(F)F)C=C5)cc4)cc3)nc2n(CCC)c1=O	–	–	–	–	–	–	–	Kd ([9]; read-out: Kd): 116 nM; Kd ([10]; read-out: Kd): 145 nM; Kd [11]: 158 nM; Kd ([12]; read-out: Kd): 71 nM; Kd [8]: 71.1 nM
COc1cc(Nc2nc(Cl)cc3c(C(C)C)n[nH]c23)cc(OC)c1OC	2.82	282	5.01	288	631	–	550	–
CC[C@@H]1CN2C(=O)N(C)C3N=C(c4ccccc4)NC3C2=N1 (some centres undefined)	–	–	–	–	–	–	–	K [22]: 2.35 10^8/M/min; TIME [23]: 0.08 h; K [24]: 0.208 min⁻¹; Kd [25]: 0.46 nM
CCCn1c(=O)[nH]c(=O)c2[nH]c(C3CCCC3)nc21	–	–	–	–	–	–	–	Kd [26]: 1.5 nM

Continued, in another order:

IC50 [1] [nM]	Kd [2] [nM]	IC50 [3] [nM]	Ki [4] [nM]	Ki [5] [nM]	Kd [6] [nM]	Kd [7] [nM]	SMILES	also measured
4.9	40.7	22.9	22.9	132	257	257	COc1cc(Nc2nc(CN)cc3c(-c4ccccc4)n[nH]c23)cc(OC)c1OC	–
3.8	–	–	–	603	–	355	COc1cc(Nc2nc(C#N)cc3c(C(C)C)n[nH]c23)cc(OC)c1OC	–
–	1.74	200	4.37	–	–	–	COc1cc(Nc2nc(C#N)cc3c(-c4ccccc4)n[nH]c23)cc(OC)c1OC	Kd ([9]; read-out: pKd (converted)): 23.4 nM; Kd ([10]; read-out: pKd (converted)): 9.33 nM; Kd [11]: 3.63 nM; Kd ([12]; read-out: pKd (converted)): 7.94 nM; Kd [13]: 13.5 nM
7.24	427	3.89	204	85.1	186	158	COc1cc(Nc2nc(CNCc3ccccc3)cc3c(-c4ccccc4)n[nH]c23)cc(OC)c1OC	–
12.3	–	–	–	55	85.1	89.1	COc1cc(Nc2nc(Cl)cc3c(-c4ccccc4)n[nH]c23)cc(OC)c1OC	–
–	102	10.2	229	–	–	–	COc1cc(Nc2nc(C#N)cc3cn[nH]c23)cc(OC)c1OC	–
5.13	–	–	–	100	74.1	251	COc1cc(Nc2nccc3c(-c4ccccc4)n[nH]c23)cc(OC)c1OC	–
4.27	–	1.41	1000	64.6	–	302	Cn1nc(NC(=O)Nc2ccccc2)c2ccnc(NC3CCCCC3)c21	–
